Assays:
[1] = molecular target: T1, non-lysosomal-β-glucocerebrosidase (Homo sapiens, UniProt Q9HCG7); test: Inhibition of non-lysosomal-β-glucocerebrosidase; format: biochemical; conditions: whole cell extracts of MCF7 as enzyme source; 5 mM 4-MU β-glucoside; pH 5.8
T1 construct: whole cell extracts of MCF7 (a human breast carcinoma cell line) was used as the source of the enzyme; endogenous in cells; host or cells: MCF7 whole cell extract
T1 sequence (Q9HCG7 1-927): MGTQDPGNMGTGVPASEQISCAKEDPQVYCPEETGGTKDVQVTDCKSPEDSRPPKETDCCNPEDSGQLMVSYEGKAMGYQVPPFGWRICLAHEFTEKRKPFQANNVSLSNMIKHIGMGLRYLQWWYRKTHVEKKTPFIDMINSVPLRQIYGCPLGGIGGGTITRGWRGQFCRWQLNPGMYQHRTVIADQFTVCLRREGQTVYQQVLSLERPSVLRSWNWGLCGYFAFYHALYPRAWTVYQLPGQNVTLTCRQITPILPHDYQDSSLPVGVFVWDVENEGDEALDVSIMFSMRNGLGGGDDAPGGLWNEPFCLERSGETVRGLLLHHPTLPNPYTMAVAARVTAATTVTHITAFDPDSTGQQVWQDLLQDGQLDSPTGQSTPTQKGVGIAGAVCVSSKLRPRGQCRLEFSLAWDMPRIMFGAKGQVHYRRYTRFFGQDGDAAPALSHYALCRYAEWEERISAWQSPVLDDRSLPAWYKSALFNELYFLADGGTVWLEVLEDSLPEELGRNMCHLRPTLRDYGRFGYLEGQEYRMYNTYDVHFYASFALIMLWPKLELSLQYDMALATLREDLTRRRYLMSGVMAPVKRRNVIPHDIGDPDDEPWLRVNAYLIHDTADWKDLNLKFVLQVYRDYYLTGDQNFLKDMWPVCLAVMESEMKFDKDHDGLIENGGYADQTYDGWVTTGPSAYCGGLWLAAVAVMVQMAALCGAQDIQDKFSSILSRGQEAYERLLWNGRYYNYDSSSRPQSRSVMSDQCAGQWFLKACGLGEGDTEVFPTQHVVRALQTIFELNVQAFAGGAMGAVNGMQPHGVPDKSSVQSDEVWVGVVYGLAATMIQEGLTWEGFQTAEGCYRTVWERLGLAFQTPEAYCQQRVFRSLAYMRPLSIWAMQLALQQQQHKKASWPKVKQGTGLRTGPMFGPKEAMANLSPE

[2] = molecular target: T2, human recombinant GCS expressed in insect cells (Homo sapiens, UniProt Q16739); test: Inhibition of GCS; format: biochemical
T2 construct: made in house; host or cells: insect cells
T2 sequence (Q16739 1-394): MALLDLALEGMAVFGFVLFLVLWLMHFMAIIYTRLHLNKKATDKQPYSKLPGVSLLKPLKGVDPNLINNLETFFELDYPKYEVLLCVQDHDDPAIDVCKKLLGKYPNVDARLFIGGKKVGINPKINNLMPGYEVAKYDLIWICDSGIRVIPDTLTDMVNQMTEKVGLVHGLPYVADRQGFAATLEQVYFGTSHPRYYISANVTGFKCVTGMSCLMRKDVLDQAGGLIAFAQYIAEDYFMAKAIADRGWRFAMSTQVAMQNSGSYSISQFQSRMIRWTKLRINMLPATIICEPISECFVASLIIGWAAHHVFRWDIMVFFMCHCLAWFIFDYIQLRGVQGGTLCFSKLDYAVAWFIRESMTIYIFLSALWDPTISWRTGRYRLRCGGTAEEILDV
Experimental: The assay for inhibition of GCS was performed essentially as described in Platt et al., J. Biol. Chem., (1994), 269, 27108, the enzyme source being human recombinant GCS expressed in insect cells.

For OC[C@@H]1[C@H](O)[C@H](O)[C@@H](O)CN1Cc1ccc(OCc2ccccc2)cc1 [Example 1], which IC50 [1] is on record?
The IC50 was 10 µM.

And the IC50 [2]?
The IC50 was 1.3 µM.

Reference: patent US20080234324A1, “Piperidine Derivatives as Gcs Inhibitors” (priority 2004, published 2008)
